Measured values reported in ChEMBL document CHEMBL6114969, “Ultra-short lipopeptides containing d-amino acid exhibiting excellent stability and antibacterial activity against gram-positive bacteria” (Eur J Med Chem, 2025).
≈ marks a conversion by molar mass, not a printed value. Calls of active or inactive are those of the source. The rule behind the calls is not given here.

Experiments:
Staphylococcus aureus [1] = test: Antibacterial activity against methicillin-resistant Staphylococcus aureus ATCC 33591 infected in Balb/c mouse model of skin wound infection assessed as wound heal at 10 mg/kg, ip administered thrice at 1, 24 and 48 hrs post-infection measured after 14 days in presence of polymyxin B relative to control; assay type: functional; details: time 14 day
[2] = Toxicity in Balb/c mouse assessed as cell swelling in liver at 80 mg/kg, ip measured after 7 days by H and E staining based analysis; assay type: organism-based; details: in vivo, 168 h, time 7 day
Staphylococcus aureus [3] = test: Antibacterial activity against methicillin-resistant Staphylococcus aureus ATCC 33591 infected in Balb/c mouse model of pneumonia infection assessed as reduction in inflammatory cell infiltration in lung at 10 mg/kg, ip administered thrice at 4, 8 and 12 hrs post-infection measured after 24 hrs post-infection by H and E staining based analysis; assay type: functional, organism-based; details: time 20.0 hrs
Staphylococcus aureus [4] = test: Inhibition of imipenem-induced drug resistance in […] Staphylococcus aureus ATCC 33591 at sub-MIC measured upto 15 passages; assay type: functional, organism-based
Staphylococcus aureus [5] = test: Antibacterial activity against methicillin-resistant Staphylococcus aureus ATCC 33591 infected in Balb/c mouse model of acute systemic infection assessed as reduction in follicular structure loss in spleen at 10 mg/kg, ip measured after 5 days by H and E staining based analysis; assay type: functional, organism-based; details: time 5.0 day
[6] = Toxicity in Balb/c mouse assessed as cell swelling in spleen at 80 mg/kg, ip measured after 7 days by H and E staining based analysis; assay type: organism-based; details: in vivo, 168 h, time 7 day
Staphylococcus aureus [7] = test: Induction of morphological changes in methicillin-resistant Staphylococcus aureus ATCC 33591 assessed as large area membrane melting at 4 times MIC incubated for 2 hrs by SEM analysis; assay type: functional, organism-based
Staphylococcus aureus [8] = test: Antibacterial activity against methicillin-resistant Staphylococcus aureus ATCC 33591 incubated for 18 to 24 hrs in presence of 2 mg/ml of chymotrypsin by broth microdilution method; assay type: functional; details: time 18-24 hrs
Staphylococcus aureus [9] = test: Antibacterial activity against methicillin-resistant Staphylococcus aureus ATCC 33591 infected in Balb/c mouse model of acute systemic infection assessed as reduction in inflammatory cell infiltration in liver at 10 mg/kg, ip measured after 5 days by H and E staining based analysis; assay type: functional, organism-based; details: time 5.0 day
Staphylococcus aureus [10] = test: Antibacterial activity against methicillin-resistant Staphylococcus aureus ATCC 33591 infected in Balb/c mouse model of acute systemic infection assessed as reduction in bacterial count in kidney at 10 mg/kg, ip measured after 5 days; assay type: functional, organism-based; details: time 5.0 day
[11] = Toxicity in Balb/c mouse assessed as inflammatory cell infiltration in kidney at 80 mg/kg, ip measured after 7 days by H and E staining based analysis; assay type: organism-based; details: in vivo, 168 h, time 7 day
Staphylococcus aureus [12] = test: Antibacterial activity against methicillin-resistant Staphylococcus aureus ATCC 33591 incubated for 18 to 24 hrs by broth microdilution method; assay type: functional; details: time 18-24 hrs
Staphylococcus aureus [13] = test: Antibacterial activity against methicillin-resistant Staphylococcus aureus ATCC 33591 infected in Balb/c mouse model of acute systemic infection assessed as tissue damage repair at 10 mg/kg, ip measured after 5 days in presence of polymyxin B by H and E staining based analysis; assay type: functional, organism-based; details: time 5.0 day
Enterococcus faecalis = test: Antibacterial activity against Enterococcus faecalis ATCC 29212 incubated for 18 to 24 hrs by broth microdilution method; assay type: functional; details: time 18-24 hrs
Staphylococcus aureus [14] = test: Destruction of cell membrane in methicillin-resistant Staphylococcus aureus ATCC 33591 assessed as increase in red fluorescence intensity incubated for 2 hrs by PI staining based analysis; assay type: functional, organism-based
Staphylococcus aureus [15] = test: Antibacterial activity against methicillin-resistant Staphylococcus aureus ATCC 33591 infected in Balb/c mouse model of acute systemic infection assessed as reduction in bacterial count in lung at 10 mg/kg, ip measured after 5 days; assay type: functional, organism-based; details: time 5.0 day
[16] = Toxicity in Balb/c mouse assessed as change in serum BUN level at 20 to 80 mg/kg, ip measured after 7 days; assay type: organism-based; details: in vivo, 168 h, dose 20-80 mg/kg, time 7 day
Staphylococcus aureus [17] = test: Elimination of biofilm generation of methicillin-resistant Staphylococcus aureus ATCC 33591 incubated for 24 hrs by MTT assay; assay type: functional, organism-based
Staphylococcus aureus [18] = test: Induction of morphological changes in methicillin-resistant Staphylococcus aureus ATCC 33591 assessed as content leakage at 4 times MIC incubated for 2 hrs by SEM analysis; assay type: functional, organism-based
Staphylococcus aureus [19] = test: Inhibition of imipenem-induced drug resistance in Staphylococcus aureus ATCC 25923 at sub-MIC measured upto 15 passages; assay type: functional, organism-based
Staphylococcus aureus [20] = test: Antibacterial activity against drug-resistant Staphylococcus aureus ATCC 25923 incubated for 18 to 24 hrs; assay type: functional; details: time 18-24 hrs
[21] = Retention time of compound by RP-HPLC analysis; assay type: physicochemical
Staphylococcus aureus [22] = test: Induction of drug resistance in Staphylococcus aureus ATCC 25923 at sub-MIC measured after 15 passages; assay type: functional, organism-based
Staphylococcus aureus [23] = test: Antibacterial activity against methicillin-resistant Staphylococcus aureus ATCC 33591 infected in Balb/c mouse model of acute systemic infection assessed as reduction in hemorrhage in lung at 10 mg/kg, ip measured after 5 days by H and E staining based analysis; assay type: functional, organism-based; details: time 5.0 day
Staphylococcus aureus [24] = test: Bactericidal activity against methicillin-resistant Staphylococcus aureus ATCC 33591 at 4 times MIC incubated for 24 hrs in presence of >64 ug/ml phosphatidylcholine by absorbance based assay; assay type: functional, organism-based
[25] = Stability in mouse serum assessed as compound degradation measured upto 96 hrs by RP-HPLC analysis; assay type: ADME, cell-free; details: read-out: Drug degradation
Staphylococcus aureus [26] = test: Antibacterial activity against methicillin-resistant Staphylococcus aureus ATCC 33591 assessed as fold change in MIC incubated for 18 to 24 hrs in presence of MgCl2 by broth microdilution method; assay type: functional; details: time 18-24 hrs
Staphylococcus aureus [27] = test: Antibacterial activity against methicillin-resistant Staphylococcus aureus ATCC 33591 infected in Balb/c mouse model of skin wound infection assessed as reduction in keratosis in wound surface at 10 mg/kg, ip administered thrice at 1, 24 and 48 hrs post-infection measured after 14 days by IHC analysis; assay type: functional, organism-based; details: time 14.0 day
[28] = Hemolytic activity in mouse Red blood cells incubated for 1 hr by absorbance based analysis; assay type: toxicity, cell-based; details: erythrocyte
Staphylococcus aureus [29] = test: Antibacterial activity against methicillin-resistant Staphylococcus aureus ATCC 33591 incubated for 18 to 24 hrs in presence of 0.5 mg/ml of trypsin by broth microdilution method; assay type: functional; details: time 18-24 hrs
Staphylococcus aureus [30] = test: Antibacterial activity against methicillin-resistant Staphylococcus aureus ATCC 33591 incubated for 18 to 24 hrs in presence of 0.5 mg/ml of chymotrypsin by broth microdilution method; assay type: functional; details: time 18-24 hrs
Staphylococcus aureus [31] = test: Antibacterial activity against methicillin-resistant Staphylococcus aureus ATCC 33591 infected in Balb/c mouse model of skin wound infection assessed as crusted back wound at 10 mg/kg, ip administered thrice at 1, 24 and 48 hrs post-infection measured after 9 days relative to control; assay type: functional; details: time 9 day
Staphylococcus aureus [32] = test: Antibacterial activity against methicillin-resistant Staphylococcus aureus ATCC 33591 infected in Balb/c mouse model of skin wound infection assessed as reduction in IL-1beta activity in skin at 10 mg/kg, ip administered thrice at 1, 24 and 48 hrs post-infection measured after 14 days in presence of polymyxin B by IHC analysis; assay type: functional, organism-based; details: time 14.0 day
[33] = Toxicity in Balb/c mouse assessed as change in serum CREA level at 80 mg/kg, ip measured after 7 days; assay type: organism-based; details: in vivo, 168 h, time 7 day

## CCCCCCCCCCCC(=O)N[C@H](CCCNC(=N)N)C(=O)N[C@H](CCCNC(=N)N)C(=O)N[C@H](Cc1c[nH]c2ccccc12)C(=O)O
Staphylococcus aureus [1]
  Activity: 100%
[2]
  Activity: Toxic
Staphylococcus aureus [3]
  Activity: Active
Staphylococcus aureus [4]
  inhibition: Active
Staphylococcus aureus [5]
  Activity: Active
[6]
  Activity: Toxic
Staphylococcus aureus [7]
  Activity: Active
Staphylococcus aureus [8]
  MIC: 4 µM
Staphylococcus aureus [9]
  Activity: Active
Staphylococcus aureus [10]
  Activity: Active
[11]
  Activity: Toxic
Staphylococcus aureus [12]
  MIC: 4 µM (≈ 2.8 µg/mL)
Staphylococcus aureus [13]
  Activity: Active; Compound In Combination Exerted Better Activity Than Polymyxin B Treatment Alone
Enterococcus faecalis
  MIC: 8 µM (≈ 5.59 µg/mL)
Staphylococcus aureus [14]
  Activity: Dose-dependent-effect
Staphylococcus aureus [15]
  Activity: Active
[16]
  Activity: Non-toxic
Staphylococcus aureus [17]
  Activity: Not active; Compound Activity Was Not Significant
Staphylococcus aureus [18]
  Activity: Active
Staphylococcus aureus [19]
  inhibition: Active
Staphylococcus aureus [20]
  MIC: 8 µM (≈ 5.59 µg/mL)
[21]
  Retention_time: 17.826 min
Staphylococcus aureus [22]
  Activity: inactive
Staphylococcus aureus [23]
  Activity: Active
Staphylococcus aureus [24]
  Activity: inactive
[25]
  metabolised at 96 h: ~20%
Staphylococcus aureus [26]
  fold change (FC): <3
Staphylococcus aureus [27]
  Activity: Active
[28]
  HC10: 64 µM
Staphylococcus aureus [29]
  MIC: 4 µM
Staphylococcus aureus [30]
  MIC: 4 µM
Staphylococcus aureus [31]
  Activity: 100%
Staphylococcus aureus [32]
  Activity: Active
[33]
  Activity: Toxic
